Active and inactive are the calls of the source.
Experiments:
[1] = molecular target: Mitogen-activated protein kinase 8 (Homo sapiens, UniProt P45983); format: functional;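 also: value comes from one member of a kinome-wide kinase profiling panel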
[2] = molecular target: cGMP-dependent protein kinase 1 (Homo sapiens, UniProt Q13976); format: functional;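 also: value from a kinome panel screen with PRKG1 as the panel member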
[3] = molecular target: Lymphokine-activated killer T-cell-originated protein kinase (Homo sapiens, UniProt Q96KB5); format: functional;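 also: value comes from a kinase panel screen in which TOPK was one of the panel members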
Lymphokine-activated killer T-cell-originated protein kinase, sequence (Q96KB5 whole entry): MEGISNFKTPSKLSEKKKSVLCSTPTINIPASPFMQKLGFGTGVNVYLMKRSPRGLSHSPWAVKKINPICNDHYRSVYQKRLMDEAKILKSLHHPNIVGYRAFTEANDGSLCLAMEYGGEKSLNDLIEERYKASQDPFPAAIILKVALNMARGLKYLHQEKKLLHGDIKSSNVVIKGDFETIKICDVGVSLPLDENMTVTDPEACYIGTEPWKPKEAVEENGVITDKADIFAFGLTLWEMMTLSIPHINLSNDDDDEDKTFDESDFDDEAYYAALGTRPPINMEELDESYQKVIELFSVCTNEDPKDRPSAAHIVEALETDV

[4] = molecular target: Receptor tyrosine-protein kinase erbB-4 (Homo sapiens, UniProt Q15303); format: functional;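 also: ERBB4 member of a kinome-wide kinase profiling panel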
[5] = molecular target: Dual specificity protein kinase CLK4 (Homo sapiens, UniProt Q9HAZ1); format: functional
Dual specificity protein kinase CLK4, sequence (Q9HAZ1 whole entry): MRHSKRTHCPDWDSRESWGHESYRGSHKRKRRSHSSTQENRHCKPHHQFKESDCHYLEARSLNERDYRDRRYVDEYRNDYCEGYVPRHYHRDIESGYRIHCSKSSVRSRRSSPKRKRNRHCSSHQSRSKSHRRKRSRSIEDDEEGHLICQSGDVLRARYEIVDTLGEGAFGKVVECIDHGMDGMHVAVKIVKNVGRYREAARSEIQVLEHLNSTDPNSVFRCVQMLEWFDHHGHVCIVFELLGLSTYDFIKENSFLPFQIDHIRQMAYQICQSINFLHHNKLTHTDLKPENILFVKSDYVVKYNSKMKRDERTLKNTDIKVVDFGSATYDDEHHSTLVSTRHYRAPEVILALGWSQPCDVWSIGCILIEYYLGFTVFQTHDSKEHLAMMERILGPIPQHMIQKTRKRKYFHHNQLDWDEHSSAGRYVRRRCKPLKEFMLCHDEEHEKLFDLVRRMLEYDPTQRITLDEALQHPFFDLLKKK

[6] = molecular target: Dual specificity mitogen-activated protein kinase kinase 1 (Homo sapiens, UniProt Q02750); test: Navigating the Kinome. Panel member name: MAP2K1; format: functional
[7] = molecular target: Interleukin-1 receptor-associated kinase 1 (Homo sapiens, UniProt P51617); format: functional;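 also: IRAK1 tested as one member of a kinome panel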
Interleukin-1 receptor-associated kinase 1, sequence (P51617 whole entry): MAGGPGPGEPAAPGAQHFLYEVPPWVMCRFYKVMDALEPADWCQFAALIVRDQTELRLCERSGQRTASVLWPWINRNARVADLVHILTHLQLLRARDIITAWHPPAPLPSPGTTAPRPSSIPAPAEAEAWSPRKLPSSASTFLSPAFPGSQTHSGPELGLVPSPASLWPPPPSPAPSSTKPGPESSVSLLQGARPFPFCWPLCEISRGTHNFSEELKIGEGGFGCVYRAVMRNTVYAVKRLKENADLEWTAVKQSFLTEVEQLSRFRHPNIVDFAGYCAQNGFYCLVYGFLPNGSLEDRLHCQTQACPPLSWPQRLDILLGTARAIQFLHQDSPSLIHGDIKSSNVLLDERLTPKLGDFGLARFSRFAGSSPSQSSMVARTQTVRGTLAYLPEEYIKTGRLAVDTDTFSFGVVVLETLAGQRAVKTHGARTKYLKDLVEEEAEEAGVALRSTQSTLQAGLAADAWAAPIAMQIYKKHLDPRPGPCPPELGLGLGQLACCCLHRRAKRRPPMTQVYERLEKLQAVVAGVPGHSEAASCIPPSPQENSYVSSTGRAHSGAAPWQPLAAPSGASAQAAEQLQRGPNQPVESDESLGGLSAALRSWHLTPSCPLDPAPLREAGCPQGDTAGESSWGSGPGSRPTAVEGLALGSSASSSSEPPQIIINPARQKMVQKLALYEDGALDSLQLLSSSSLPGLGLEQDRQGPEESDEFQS

Misshapen-like kinase 1 = Misshapen-like kinase 1 (Homo sapiens, UniProt Q8N4C8); format: functional;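 also: kinome panel screen with MINK as the panel member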
Misshapen-like kinase 1, sequence (Q8N4C8 whole entry): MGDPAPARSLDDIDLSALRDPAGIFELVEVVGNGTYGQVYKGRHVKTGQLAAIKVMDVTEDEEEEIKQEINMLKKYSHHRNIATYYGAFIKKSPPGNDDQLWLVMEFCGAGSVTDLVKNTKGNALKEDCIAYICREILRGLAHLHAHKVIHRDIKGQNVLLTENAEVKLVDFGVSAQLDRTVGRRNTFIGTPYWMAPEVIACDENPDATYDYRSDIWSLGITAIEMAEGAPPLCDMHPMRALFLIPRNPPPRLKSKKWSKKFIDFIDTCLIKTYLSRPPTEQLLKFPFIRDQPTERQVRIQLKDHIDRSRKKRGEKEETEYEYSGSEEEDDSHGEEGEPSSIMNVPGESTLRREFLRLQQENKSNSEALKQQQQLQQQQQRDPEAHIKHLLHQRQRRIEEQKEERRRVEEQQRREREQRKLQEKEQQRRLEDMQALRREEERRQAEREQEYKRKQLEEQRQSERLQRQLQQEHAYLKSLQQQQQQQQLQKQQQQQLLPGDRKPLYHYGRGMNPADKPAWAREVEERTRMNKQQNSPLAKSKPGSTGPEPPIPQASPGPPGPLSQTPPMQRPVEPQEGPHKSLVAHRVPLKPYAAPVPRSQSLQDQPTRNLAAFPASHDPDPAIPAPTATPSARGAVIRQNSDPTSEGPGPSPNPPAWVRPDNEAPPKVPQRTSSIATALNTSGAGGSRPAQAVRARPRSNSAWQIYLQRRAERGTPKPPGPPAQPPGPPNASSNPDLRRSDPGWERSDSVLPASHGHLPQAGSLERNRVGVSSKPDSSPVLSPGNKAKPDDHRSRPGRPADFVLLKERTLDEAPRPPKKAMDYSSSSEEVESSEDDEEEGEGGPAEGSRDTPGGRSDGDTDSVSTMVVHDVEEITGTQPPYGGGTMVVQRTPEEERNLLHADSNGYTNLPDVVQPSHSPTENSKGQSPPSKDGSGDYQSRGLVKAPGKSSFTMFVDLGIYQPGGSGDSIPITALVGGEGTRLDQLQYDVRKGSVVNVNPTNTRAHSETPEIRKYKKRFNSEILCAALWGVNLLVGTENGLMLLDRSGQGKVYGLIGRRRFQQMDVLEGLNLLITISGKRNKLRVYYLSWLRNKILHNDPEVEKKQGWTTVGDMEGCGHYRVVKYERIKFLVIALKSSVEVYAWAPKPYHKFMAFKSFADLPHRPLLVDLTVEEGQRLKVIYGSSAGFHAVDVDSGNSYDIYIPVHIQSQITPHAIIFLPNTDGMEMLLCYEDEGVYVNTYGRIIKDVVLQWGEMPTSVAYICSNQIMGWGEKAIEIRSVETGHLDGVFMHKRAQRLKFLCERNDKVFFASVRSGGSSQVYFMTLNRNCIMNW

[8] = molecular target: Tyrosine-protein kinase ABL1 (Homo sapiens, UniProt P00519); format: functional
[9] = molecular target: Ribosomal protein S6 kinase alpha-5 (Homo sapiens, UniProt O75582); format: functional
[10] = molecular target: Protein kinase C theta type (Homo sapiens, UniProt Q04759); test: Navigating the Kinome. Panel member name: PRKCQ; format: functional
Aurora kinase B = Aurora kinase B (Homo sapiens, UniProt Q96GD4); format: functional
[11] = molecular target: Maternal embryonic leucine zipper kinase (Homo sapiens, UniProt Q14680); format: functional
[12] = molecular target: Serine/threonine-protein kinase N2 (Homo sapiens, UniProt Q16513); format: functional
[13] = molecular target: Testis-specific serine/threonine-protein kinase 2 (Homo sapiens, UniProt Q96PF2); format: functional;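 also: part of the Navigating the Kinome panel, target entry STK22B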
Testis-specific serine/threonine-protein kinase 2, sequence (Q96PF2 whole entry): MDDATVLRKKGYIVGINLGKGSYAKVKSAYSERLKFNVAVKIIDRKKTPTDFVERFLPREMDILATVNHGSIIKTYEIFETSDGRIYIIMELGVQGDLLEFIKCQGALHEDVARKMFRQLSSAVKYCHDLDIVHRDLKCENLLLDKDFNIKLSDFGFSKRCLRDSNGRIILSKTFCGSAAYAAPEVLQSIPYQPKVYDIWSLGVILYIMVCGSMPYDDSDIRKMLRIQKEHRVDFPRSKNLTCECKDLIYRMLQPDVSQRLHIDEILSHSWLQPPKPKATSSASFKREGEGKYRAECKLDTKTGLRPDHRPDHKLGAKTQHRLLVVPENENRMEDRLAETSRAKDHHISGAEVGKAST

[14] = molecular target: Serine/threonine-protein kinase D2 (Homo sapiens, UniProt Q9BZL6); format: functional;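 also: measured against PRKD2 as one member of a kinome-wide kinase profiling panel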
SRSF protein kinase 1 = SRSF protein kinase 1 (Homo sapiens, UniProt Q96SB4); format: functional;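 also: measured as one member of a kinome-wide kinase profiling panel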
[15] = molecular target: Mitogen-activated protein kinase 10 (Homo sapiens, UniProt P53779); test: Navigating the Kinome. Panel member name: MAPK10; format: functional
[16] = molecular target: Calcium/calmodulin-dependent protein kinase type II subunit beta (Homo sapiens, UniProt Q13554); format: functional
Calcium/calmodulin-dependent protein kinase type II subunit beta, sequence (Q13554 whole entry): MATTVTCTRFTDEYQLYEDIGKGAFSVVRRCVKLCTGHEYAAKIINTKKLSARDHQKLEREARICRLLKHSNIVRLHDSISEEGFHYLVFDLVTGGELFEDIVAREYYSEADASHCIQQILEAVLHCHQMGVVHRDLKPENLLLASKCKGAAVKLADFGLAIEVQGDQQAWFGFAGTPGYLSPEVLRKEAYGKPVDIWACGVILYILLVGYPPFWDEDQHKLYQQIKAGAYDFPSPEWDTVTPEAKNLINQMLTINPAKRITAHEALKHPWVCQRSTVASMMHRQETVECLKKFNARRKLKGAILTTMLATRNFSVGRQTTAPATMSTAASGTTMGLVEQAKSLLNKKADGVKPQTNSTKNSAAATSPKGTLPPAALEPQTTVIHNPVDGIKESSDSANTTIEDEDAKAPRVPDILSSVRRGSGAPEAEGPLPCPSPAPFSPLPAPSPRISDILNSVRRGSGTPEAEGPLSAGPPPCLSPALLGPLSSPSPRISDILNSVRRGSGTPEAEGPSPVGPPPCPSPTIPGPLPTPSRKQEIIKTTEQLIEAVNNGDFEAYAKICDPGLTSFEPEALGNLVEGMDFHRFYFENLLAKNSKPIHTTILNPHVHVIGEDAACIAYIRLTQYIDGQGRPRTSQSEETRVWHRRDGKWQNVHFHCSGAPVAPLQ

[17] = molecular target: Glycogen synthase kinase-3 beta (Homo sapiens, UniProt P49841); format: functional;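 also: value comes from a broad kinome profiling panel, with GSK3B as the panel member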
[18] = molecular target: Proto-oncogene tyrosine-protein kinase Src (Homo sapiens, UniProt P12931); format: functional;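 also: SRC entry within a kinome-wide kinase profiling panel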
[19] = molecular target: Interleukin-1 receptor-associated kinase 4 (Homo sapiens, UniProt Q9NWZ3); format: functional
Interleukin-1 receptor-associated kinase 4, sequence (Q9NWZ3 whole entry): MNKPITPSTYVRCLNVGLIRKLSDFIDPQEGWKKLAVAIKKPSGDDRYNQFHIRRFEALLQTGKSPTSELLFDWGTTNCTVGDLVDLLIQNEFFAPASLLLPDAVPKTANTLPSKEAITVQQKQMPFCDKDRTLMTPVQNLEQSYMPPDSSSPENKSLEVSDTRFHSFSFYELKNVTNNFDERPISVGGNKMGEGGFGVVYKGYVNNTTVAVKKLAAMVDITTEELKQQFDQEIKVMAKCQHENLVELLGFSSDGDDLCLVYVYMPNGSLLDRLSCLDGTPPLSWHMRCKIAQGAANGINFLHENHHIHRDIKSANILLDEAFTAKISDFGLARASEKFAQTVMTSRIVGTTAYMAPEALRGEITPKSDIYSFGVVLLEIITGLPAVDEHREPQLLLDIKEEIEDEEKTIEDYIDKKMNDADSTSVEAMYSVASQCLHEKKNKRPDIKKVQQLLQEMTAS

[20] = molecular target: STE20-like serine/threonine-protein kinase (Homo sapiens, UniProt Q9H2G2); format: functional
[21] = molecular target: 5'-AMP-activated protein kinase catalytic subunit alpha-1 (Homo sapiens, UniProt Q13131); format: functional
[22] = molecular target: Mitogen-activated protein kinase kinase kinase kinase 4 (Homo sapiens, UniProt O95819); format: functional
[23] = molecular target: Serine/threonine-protein kinase DCLK1 (Homo sapiens, UniProt O15075); format: functional;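 also: affinity for DCLK1 (listed as DCAMKL1) measured as one member of a kinome-wide kinase profiling panel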
Nonstructural protein 1 = Nonstructural protein 1 (Influenza A virus, UniProt Q194T2); format: functional, Influenza A virus (A/California/07/2009(H1N1))

cGMP-dependent protein kinase 1, sequence (Q13976 whole entry): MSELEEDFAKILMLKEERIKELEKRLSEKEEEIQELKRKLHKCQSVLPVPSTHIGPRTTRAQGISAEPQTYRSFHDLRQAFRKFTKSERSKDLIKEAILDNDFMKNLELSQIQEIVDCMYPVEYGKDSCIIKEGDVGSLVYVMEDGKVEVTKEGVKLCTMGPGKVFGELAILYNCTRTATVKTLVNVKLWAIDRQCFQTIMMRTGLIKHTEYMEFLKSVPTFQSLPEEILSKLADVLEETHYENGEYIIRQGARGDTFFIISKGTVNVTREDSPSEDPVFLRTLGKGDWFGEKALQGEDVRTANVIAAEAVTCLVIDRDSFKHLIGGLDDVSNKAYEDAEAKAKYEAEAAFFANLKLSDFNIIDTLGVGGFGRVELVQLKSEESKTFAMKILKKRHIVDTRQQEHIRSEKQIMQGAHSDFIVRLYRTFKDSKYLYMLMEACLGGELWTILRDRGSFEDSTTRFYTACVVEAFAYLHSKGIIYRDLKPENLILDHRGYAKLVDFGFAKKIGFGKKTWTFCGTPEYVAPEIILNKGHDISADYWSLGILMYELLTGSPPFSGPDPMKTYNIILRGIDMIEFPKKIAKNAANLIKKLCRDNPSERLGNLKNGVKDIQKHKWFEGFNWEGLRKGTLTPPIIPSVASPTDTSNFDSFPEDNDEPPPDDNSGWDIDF

NCCCn1cc(-c2cc(-c3cc4ccccc4s3)c3[nH]ncc3c2)c2nc(N)ncc21
active: Ki [2] 0.00631 µM | Ki [3] 2.51 µM | Ki [5] 0.0316 µM | Ki [7] 1.26 µM | Ki (Misshapen-like kinase 1) 0.1 µM | Ki [9] 0.631 µM | Ki [11] 0.251 µM | Ki [12] 0.316 µM | Ki [13] 1.58 µM | Ki [14] 0.0501 µM | Ki (SRSF protein kinase 1) 2 µM | Ki [16] 3.16 µM | Ki [17] 0.316 µM | Ki [19] 7.94 µM | Ki [20] 0.126 µM | Ki [21] 0.794 µM | Ki [23] 2.51 µM
inactive: Ki [1] > 2.51 µM | Ki [4] > 3.98 µM | Ki [6] > 3.16 µM | Ki [8] > 2.51 µM | Ki [10] > 2 µM | Ki (Aurora kinase B) > 2 µM | Ki [15] > 3.16 µM | Ki [18] > 2 µM | Ki [22] > 3.16 µM

CCCn1nc([N+](=O)[O-])c(C(C#N)c2nc3ccccc3s2)c(Cl)c1=O (configuration not stated)
active: IC50 (Nonstructural protein 1) 24.7 µM

Reference: ChEMBL document CHEMBL1201862, “PubChem BioAssay data set” (2004)
